row,SMILES,melting point
1,O=C(O)C1CC2(C1)C1CCCC2CN(Cc2ccc3c(c2)Nc2nccnc2S3)C1 (stereo not shown),98 to 101 °C
2,CCNC(=O)c1ccc2c(c1)Nc1nccnc1S2,274 to 275 °C
3,O=C(O)C1CCN(c2ncnc3c2ncn3Cc2ccc3c(c2)Nc2nccnc2S3)CC1,238 to 240 °C
4,c1ccc(CN2CCN(c3ncnc4c3ncn4Cc3ccc4c(c3)Nc3nccnc3S4)CC2)cc1,213 to 214 °C
5,CC(C)(O)c1ncnc2c1ncn2Cc1ccc2c(c1)Nc1nccnc1O2,143 to 145 °C
6,N/C(Cc1ccc2c(c1)Nc1nccnc1S2)=N\S(=O)(=O)C(F)(F)F,200 to 202 °C
7,CN1CCCN=C1Cc1ccc2c(c1)Nc1nccnc1S2.Cl,> 280 °C
8,COC(=O)CC1C2CCCC1CN(Cc1ccc3c(c1)N(C(C)=O)c1nccnc1S3)C2 (stereo not shown),160 to 162 °C
9,CC(=O)NCCC1CCN(Cc2ccc3c(c2)Nc2nccnc2S3)CC1,194 to 196 °C
10,CS(=O)(=O)N1CCC(NCc2ccc3c(c2)Nc2nccnc2S3)CC1,219 to 221 °C
11,COC1CCN(Cc2ccc3c(c2)Nc2nccnc2S3)CC1,172 to 174 °C
12,NC(=O)C1CCN(Cc2ccc3c(c2)Nc2nccnc2S3)CC1,225 to 228 °C
13,NC(=O)C1CCCN1Cc1ccc2c(c1)Nc1nccnc1S2 (stereo not shown),194 to 197 °C
14,CC1CCCC(C)N1Cc1ccc2c(c1)Nc1nccnc1S2 (stereo not shown),168 to 172 °C
15,CNS(=O)(=O)NCC1CN(Cc2ccc3c(c2)Nc2nccnc2S3)C1,173 to 176 °C
16,OCC1(O)CCN(Cc2ccc3c(c2)Nc2nccnc2S3)CC1,170 to 173 °C
17,CCC/C(=N\OCC(=O)O)C1CCN(Cc2ccc3c(c2)Nc2nccnc2S3)CC1,193 to 195 °C
18,O=C(O)CC(=O)N1CCC(NCc2ccc3c(c2)Nc2nccnc2S3)CC1,167 to 170 °C

row,SMILES,melting point
1,CC(C)(CC(=O)O)CC1CCN(Cc2ccc3c(c2)Nc2nccnc2S3)CC1,230 to 232 °C
2,CC(CCC1CCN(Cc2ccc3c(c2)Nc2ccncc2S3)CC1)C(=O)O (stereo not shown),210 to 215 °C
3,CC1(CC(=O)O)CC2(CCN(Cc3ccc4c(c3)Nc3nccnc3S4)CC2)C1,149 to 151 °C
4,CCCCC1(CC(=O)O)CC2(CCN(Cc3ccc4c(c3)Nc3nccnc3S4)CC2)C1,133 to 135 °C
5,O=C(O)C(F)=C1CCN(Cc2ccc3c(c2)Nc2nccnc2S3)CC1,167 to 173 °C
6,O=C(O)c1ccc(CN2c3ccccc3Nc3nccnc32)cc1,253 to 255 °C
7,CN1c2ccc(/C=C/C(=O)O)cc2Nc2nccnc21,275 °C
8,O=C(O)CCCN1c2ccccc2Nc2nccnc21,273 to 274 °C
9,CN1c2ccc(C=O)cc2Nc2nccnc21,215 to 219 °C
10,CN1c2ccc(-c3cnco3)cc2Nc2nccnc21,268 to 269 °C
11,CN1c2ccc(C(O)c3cccs3)cc2Nc2nccnc21 (stereo not shown),> 275 °C
12,CN1c2ccc(C(O)c3nccn3S(=O)(=O)N(C)C)cc2Nc2nccnc21 (stereo not shown),185 to 190 °C
13,CN1c2ccc(C(O)c3nnc[nH]3)cc2Nc2nccnc21 (stereo not shown),> 275 °C
14,CN1c2ccc(C(N)c3ccccn3)cc2Nc2nccnc21 (stereo not shown),> 275 °C
15,CN1c2ccc(CNC(N)=O)cc2Nc2nccnc21,> 275 °C
16,CN(C)C(=O)C#Cc1ccc2c(c1)Nc1nccnc1N2C,203 to 205 °C
17,O=C(O)CCC1C2CCCC1CN(Cc1ccc3c(c1)Nc1nccnc1S3)C2 (stereo not shown),223 to 225 °C

# Continued, values first:
row,melting point,SMILES
1,230 to 231 °C,CCc1nccn1Cc1ccc2c(c1)Nc1nccnc1S2
2,231 to 233 °C,FC(F)(F)c1nccn1Cc1ccc2c(c1)Nc1nccnc1S2
3,216 to 218 °C,c1ccc(-c2cn(Cc3ccc4c(c3)Nc3nccnc3S4)cn2)cc1
4,185 to 188 °C,O=C(O)c1ccc(Cc2nccn2Cc2ccc3c(c2)Nc2nccnc2S3)cc1
5,235 °C (dec.),Cc1ncn(Cc2ccc3c(c2)Nc2nccnc2S3)c1C(=O)O
6,> 290 °C,C/C(=C\c1ncn(Cc2ccc3c(c2)Nc2nccnc2S3)c1C)C(=O)O
7,172 °C,CC/C(=C\c1c(C)ncn1Cc1ccc2c(c1)Nc1nccnc1S2)C(=O)O
8,259 to 261 °C,C/C(O)=C(\C#N)C(=O)Nc1ccc(-c2cn(Cc3ccc4c(c3)Nc3nccnc3S4)cn2)cc1
9,240 to 241 °C,O=C(O)c1ccc(C(O)c2nccn2Cc2ccc3c(c2)Nc2nccnc2S3)cc1 (stereo not shown)
10,199 to 202 °C,Cc1ncn(Cc2ccc3c(c2)Nc2nccnc2S3)c1C(C)(C)O
11,179 to 183 °C,c1cc(CCc2ccc3c(c2)Nc2nccnc2S3)ccn1
12,84 to 86 °C,COc1ccc(C(O)c2ccc3c(c2)Nc2nccnc2S3)cc1 (stereo not shown)
13,180 to 181 °C,CC(c1cccnc1)c1ccc2c(c1)Nc1nccnc1S2 (stereo not shown)
14,156 to 158 °C,OC(CCc1ccccc1)c1ccc2c(c1)Nc1nccnc1S2 (stereo not shown)
15,245 to 248 °C,O=C(O)c1ccc(CNCc2ccc3c(c2)Nc2nccnc2S3)cc1
16,228 to 233 °C,CC(C(=O)O)c1ccc(NCc2ccc3c(c2)Nc2nccnc2S3)cc1.Cl (stereo not shown)
17,118 to 120 °C,c1ccc(COCc2ccc3c(c2)Nc2nccnc2S3)cc1
18,290 °C,Nc1ncnc2c1ncn2Cc1ccc2c(c1)Nc1nccnc1S2
19,205 to 208 °C,CC(O)c1ncnc2ncn(Cc3ccc4c(c3)Nc3nccnc3S4)c12 (stereo not shown)

row,melting point,SMILES
1,268 to 271 °C,CC(C)(O)c1ncnc2ncn(Cc3ccc4c(c3)Nc3nccnc3S4)c12
2,210 to 212 °C,CC(O)c1ncnc2c1ncn2Cc1ccc2c(c1)Nc1nccnc1S2 (stereo not shown)
3,> 280 °C,Cl.N=C(N)c1ccc2c(c1)Nc1nccnc1S2
4,> 280 °C,Cl.N=C(N)Cc1ccc2c(c1)Nc1nccnc1S2
5,245 to 249 °C (dec.),Cl.N=C(Cc1ccc2c(c1)Nc1nccnc1S2)Nc1ccccc1
6,206 to 207 °C,N/C(Cc1ccc2c(c1)Nc1nccnc1S2)=N\S(=O)(=O)c1ccccc1
7,279 to 282 °C,Cl.N=C(N)NCc1ccc2c(c1)Nc1nccnc1S2
8,219 to 220 °C,c1ccc2c(c1)CN(Cc1ccc3c(c1)Nc1nccnc1S3)C2
9,258 to 262 °C,O=C(O)COc1ccc(C2CCN(Cc3ccc4c(c3)Nc3nccnc3S4)CC2)cc1
10,130 to 132 °C,O=C(O)Cc1cccc(C2CCN(Cc3ccc4c(c3)Nc3nccnc3S4)CC2)c1
11,124 to 128 °C,O=C(O)CC1=CCN(Cc2ccc3c(c2)Nc2nccnc2S3)CC1
12,194 to 196 °C,c1cc(NCc2ccc3c(c2)Nc2nccnc2S3)ccn1
13,232 to 235 °C,c1cnc(NCc2ccc3c(c2)Nc2nccnc2S3)nc1
14,162 to 165 °C,Cc1cc(C)nc(NCc2ccc3c(c2)Nc2nccnc2S3)c1
15,148 to 152 °C,CCc1cc(NCc2ccc3c(c2)Nc2nccnc2S3)ccn1
16,202 to 204 °C,CCc1ccc(NCc2ccc3c(c2)Nc2nccnc2S3)cn1
17,124 to 128 °C,OCCCCCCOc1ccc(NCc2ccc3c(c2)Nc2nccnc2S3)cn1
18,215 to 220 °C,O=C(O)c1ccc(NCc2ccc3c(c2)Nc2nccnc2S3)nc1
19,178 to 182 °C,O=C(c1ccccc1)N(Cc1ccc2c(c1)Nc1nccnc1S2)c1cccnc1
